This note sets out measurements from patent US20260258003A1, “SLACK-ACTIVATING COMPOUNDS AND THEIR MEDICAL USE” (Johann Wolfgang Goethe-Universität Frankfurt am Main, priority 2023, published 2026).

Series [1] deals with T1, human Slack (Homo sapiens, UniProt Q5JUK3).
T1 construct: host or cells: HEK293
T1 sequence (Q5JUK3 1-1230): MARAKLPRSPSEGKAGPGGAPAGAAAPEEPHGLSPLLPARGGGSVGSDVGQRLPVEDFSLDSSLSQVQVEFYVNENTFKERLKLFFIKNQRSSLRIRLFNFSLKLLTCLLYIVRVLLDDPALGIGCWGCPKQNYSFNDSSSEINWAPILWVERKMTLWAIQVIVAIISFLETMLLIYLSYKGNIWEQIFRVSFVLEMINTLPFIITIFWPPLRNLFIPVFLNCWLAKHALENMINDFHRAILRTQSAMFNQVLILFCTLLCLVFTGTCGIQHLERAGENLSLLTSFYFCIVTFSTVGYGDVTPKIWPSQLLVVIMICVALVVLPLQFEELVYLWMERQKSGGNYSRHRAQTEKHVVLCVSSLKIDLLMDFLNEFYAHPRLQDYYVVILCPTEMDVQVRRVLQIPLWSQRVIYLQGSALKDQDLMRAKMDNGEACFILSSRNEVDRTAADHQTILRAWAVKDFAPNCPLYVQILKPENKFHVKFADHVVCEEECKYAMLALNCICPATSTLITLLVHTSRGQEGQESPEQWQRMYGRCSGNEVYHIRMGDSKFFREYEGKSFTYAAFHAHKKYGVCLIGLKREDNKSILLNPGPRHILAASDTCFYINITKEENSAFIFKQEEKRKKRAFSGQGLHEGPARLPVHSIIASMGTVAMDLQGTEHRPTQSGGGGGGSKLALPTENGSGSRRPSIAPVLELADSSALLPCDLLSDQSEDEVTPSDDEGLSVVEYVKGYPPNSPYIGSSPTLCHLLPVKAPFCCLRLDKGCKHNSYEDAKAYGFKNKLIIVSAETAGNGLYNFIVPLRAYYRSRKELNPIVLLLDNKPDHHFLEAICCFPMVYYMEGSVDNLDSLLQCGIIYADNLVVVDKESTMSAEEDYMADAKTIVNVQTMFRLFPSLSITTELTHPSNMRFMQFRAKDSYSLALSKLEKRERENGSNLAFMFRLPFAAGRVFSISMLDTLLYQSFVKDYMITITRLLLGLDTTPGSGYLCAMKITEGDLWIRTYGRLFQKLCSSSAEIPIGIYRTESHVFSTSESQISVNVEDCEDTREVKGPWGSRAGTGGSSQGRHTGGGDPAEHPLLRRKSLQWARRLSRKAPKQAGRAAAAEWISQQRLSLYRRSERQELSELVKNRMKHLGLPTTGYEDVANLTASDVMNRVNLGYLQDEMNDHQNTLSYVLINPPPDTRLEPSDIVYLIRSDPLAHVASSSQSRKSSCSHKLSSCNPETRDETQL
Nature of the series: FluxOR potassium ion channel assay in HEK-Slack cells. Format: cell-based. The following applies: Na+ free buffer with 2 mM Ca2+, 2 mM Mg2+, 0.03% DMSO, mean with 95% confidence interval; for EC50: read-out: FluxOR assay EC50; for Emax: read-out: FluxOR assay EMAX (% relative to Loxapine). How it is done:
For that purpose, cultured HEK293 cells stably expressing human Slack (herein referred to as HEK-Slack cells) were incubated with compounds in a Na^+ free buffer to prevent compound-independent Slack activation by monovalent cations^7,19.
In detail, in these experiments, the Slack-activating efficacy and potency of the novel compounds was determined using a commercial FluxOR™ Potassium Ion Channel Assay (Invitrogen). HEK293 cells stably expressing human Slack (herein referred to as HEK-Slack cells) were plated at a density of 50,000 cells per well of a poly-D-lysine coated (75 μg/mL, Sigma Aldrich) 96-well, black-walled microplate with clear bottom (Greiner Bio-One) in DMEM containing 10% FBS and 1% penicillin/streptomycin 24 hours prior to assaying.
On the experiment day, cells were loaded with FluxOR™ dye according to the manufacturer's protocol. A Na^+-free assay buffer containing 140 mM choline chloride, 5 mM KCl, 2 mM CaCl2), 2 mM MgSO4, 10 mM HEPES, 5.55 mM glucose, adjusted to pH 7.4 with KOH, was used. To reduce background fluorescence all assay components were complemented by 10% BackDrop™ Background Suppressor (Invitrogen). […]
After washing steps, cells were incubated with compounds for 30 min at 37° C. All compounds were prepared as a 33.3 mM DMSO stock and diluted at the experimental day to a final concentration of 100, 50, 25, 12.5, 6.25, and 3.125 μM in assay buffer containing […] DMSO. […] After stimulation with Tl2SO4 solution, the fluorescence was measured over 100 s (excitation 485 nm, emission 525 nm) using an Infinite M200 Microplate Reader (Tecan). Assays run in triplicate and the ratio to baseline fluorescence was calculated for all time points. Dose-response curves comprising six concentrations were performed in triplets using fluorescence/fluorescenceBaseline ratios at the 100th second.

Series [2] relates to heart rate and breath rate of mice. Nature of the series: Pulse oximetry on conscious, freely moving mice. Format: in vivo. The following applies: 10 mg/kg i.p., observation period of 30 min. How it is done:
Finally, potential side effects of Compound 6 were assessed by measuring cardiovascular functions by pulse oximetry.

The test system of series [3] is chloroquine-induced scratching behavior of mice. Nature of the series: Chloroquine-induced itch model, topical application of creme. It is filed as in vivo. The following applies: 5% in hydrophilic creme (Basiscreme DAC), topical 30 min prior to s.c. chloroquine. How it is done:
Animals: Experiments were performed in 8-16 week-old C57BL/6N mice (Charles River, Sulzfeld, Germany) of either sex. The animals were housed under a 12 h light/dark cycle with access to food and water ad libitum. All experiments adhered to the Animal Research: Reporting on In Vivo Experiments (ARRIVE) guidelines and were approved by and conducted in accordance with the regulations of the local Animal Welfare authorities (Regierungspräsidium Darmstadt, Germany; approval number V54-19c20/15-FR/2011). All behavioral studies were conducted during the light cycle of the day at room temperature (20-24° C.) by an observer blinded for the treatment of the animals.
Drug formulation: A creme formulation of Compound 6 and Compound 21 was prepared by mixing a hydrophilic creme (Basiscreme DAC) with 5% of each Slack activator.
Behavioral assessment: Three to four days before the day of the experiment, the fur on the dorsolateral aspect of the neck was shaved under brief isoflurane anesthesia. On the testing day, Compound 6 creme, Compound 21 creme, or creme vehicle were applied topically on the shaved region of the neck under brief isoflurane anesthesia and the mice were habituated to a Plexiglas cylinder (30 cm in diameter) for 30 min immediately thereafter. […] The number of scratching bouts directed towards the nape of the neck was assessed over 30 min by videotaping.

Turning to `O=c1nc(CN2CCN(C3=Nc4cc(F)ccc4Oc4ccc(C(F)(F)F)cc43)CC2)[nH][nH]1` [Compound 18, 5-((4-(8-Fluoro-2-(trifluoromethyl)dibenzo[b,f][1,4]oxazepin-11-yl)piperazin-1-yl)methyl)-1,2-dihydro-3H-1,2,4-triazol-3-one], in series [1], the EC50 (commonly the concentration giving half of the maximal effect) was found to be 11.2 µM and the Emax (usually the maximal effect, on the per cent scale that the assay sets) was 127%.

Turning to `O=c1nc(CN2CCN(C3=Nc4ccccc4Oc4ccc(C(F)(F)F)cc43)CC2)[nH][nH]1` [Compound 11, 5-((4-(2-(Trifluoromethyl)dibenzo[b,f][1,4]oxazepin-11-yl)piperazin-1-yl)methyl)-1,2-dihydro-3H-1,2,4-triazol-3-one], in series [1], the concentration giving a half-maximal response (EC50) turned out to be 10.7 µM and the Emax amounted to 199%.

For `CN1CC[C@]23c4c5ccc(O)c4O[C@H]2[C@@H](O)C=C[C@H]3[C@H]1C5` [morphine, reference compound], in series [2], the breath rate entry is on record as “significantly reduced” and the heart rate entry is “significantly reduced”.

Take `OCCN1CCN(C2=Nc3cc(F)ccc3Oc3ccc(C(F)(F)F)cc32)CC1` [Compound 21, 2-(4-(8-Fluoro-2-(trifluoromethyl)dibenzo[b,f][1,4]oxazepin-11-yl)piperazin-1-yl) ethan-1-ol]: in series [1], the EC50 was 10.5 µM and the Emax was 264%. Further, the “chloroquine-induced scratching behavior after topical application” value in series [3] is on record as “significantly ameliorated scratching behavior”.

Turning to `O=c1nc(CN2CCN(C3=Nc4cc(F)ccc4Oc4ccc(Cl)cc43)CC2)[nH][nH]1` [Compound 19, 5-((4-(2-Chloro-8-fluorodibenzo[b,f][1,4]oxazepin-11-yl)piperazin-1-yl)methyl)-1,2-dihydro-3H-1,2,4-triazol-3-one], in series [1], the concentration giving a half-maximal response (EC50) was determined as 21.1 µM and the maximum response (Emax) was determined as 117%.

For `O=c1nc(CN2CCCN(C3=Nc4ccccc4Oc4ccc(C(F)(F)F)cc43)CC2)[nH][nH]1` [Compound 20, 5-((4-(2-(Trifluoromethyl)dibenzo[b,f][1,4]oxazepin-11-yl)-1,4-diazepan-1-yl)methyl)-1,2-dihydro-3H-1,2,4-triazol-3-one], in series [1], the 50% effective concentration (EC50) amounted to 26.2 µM and the maximal response (Emax) came out at 129%.
